Holding throughout (assay type): cell-based, rat (neonate Wistar)
Experiment [1] deals with skin-derived precursors (SKPs). The experiment can be described thus: Immunocytochemistry of neuronal markers in NDD peptide-treated cells. The settings on record: Figure 6B. How it is done: (§1) Rodent skin-derived precursor cells (SKPs), which can differentiate to neurons, were used. SKPs were previously isolated from the back dermis of neonate Wistar rats by the authors. These cells were cultured in growth medium composed of DMEM/F12 (1:1; Gibco, Grand Island, NY, USA) containing 2% B27 supplement (Gibco), 20 ng/mL epidermal growth factor (EGF; Upstate Biotechnology, Lake Placid, NY, USA), and 40 ng/mL bFGF (PeproTech EC Ltd., Rocky Hill, NJ, USA) in a humidified incubator at 37 °C with 5% CO2. The floating clusters of cultured cells were centrifuged and dissociated into a single-cell suspension by use of a Pasteur pipette with a flame-polished tip. These single cells were then re-suspended into at a concentration of 50,000 cells/mL for passage or experiments.
(§2) For neuronal differentiation, cells were dissociated into a single-cell suspension by use of a Pasteur pipette and re-suspended into a concentration of 50,000 cells/mL in DMEM/F12 without serum, neurotrophic factors or growth factors. Then, the cells were cultured on poly-L-lysine-coated dishes or cover glasses, and the synthesized peptides at concentrations from 1 to 5 μM were added to the culture medium and delivered into the cells. Three days or more later, the cells were used for morphological, immunocytochemical, immunohistochemical, electrophysiological and immunoprecipitation studies, as well as for Western blot analysis.
Cultured cells were fixed with 4% paraformaldehyde in PBS (Phosphate buffered saline) for 10 min at room temperature. Cells were incubated for 1 h at room temperature with primary antibodies. Antibodies against anti-MAP2 antibody (Sigma-Aldrich, St. Louis, MO, USA), anti-Neurofilment-H (NFH) antibody (Sigma-Aldrich), anti-NeuN antibody (Merk Millipore, Billerica, MA, USA), anti-GFAP antibody (DAKO, Santa Clara, CA, USA), anti-tyrosine hydroxylase (TH) antibody (Merk Millipore, Billerica, MA, USA), anti-choline acetyl transferase (ChAT) antibody (Abbiotec, San Diego, CA, USA), anti-glutamic acid decaboxylase (GAD) antibody (Enzo Life Sciences, Flamingdale, NY, USA), and anti-rhodopsin antibody (Santa Cruz, San Diego, CA, USA) were used. After incubation with primary antibody, the cells were incubated for 1 h with secondary antibody, either rhodamine-conjugated anti-mouse IgG (Sigma-Aldrich) or FITC-conjugated anti-rabbit IgG (Sigma-Aldrich). Nuclear counterstaining was done with DAPI (Molecular Probes, Eugene, OR, USA) or TO-PRO-3 (Molecular Probes), and observations were made with a fluorescence microscope system (FV300, Olympus, Tokyo, Japan). We counted the number of immuno-positive cells with a given antibody in 4 to 6 random non-overlapping visual fields (50–200 cells per field) in each experiment. At least 2 experiments were performed per condition. The degree of positivity was expressed as the rate of immuno-positive cells to the total number of nuclei stained with DAP1 or TO-PRO-3.

The test system of experiment [2] is skin-derived precursors (SKPs). The experiment can be described thus: Neurite outgrowth / morphological evaluation of neuronal differentiation. How it is done:
as §1, §2
Neurite outgrowth with length exceeding the diameter of the neuronal soma is often assessed as a morphological index of neuronal differentiation. After a single-cell suspension was made by pipetting, the cells were cultured in DMEN/F12 medium alone at 37 °C in a 5% CO2 incubator. Thereafter, neurite outgrowth was evaluated with the following 4 levels: +++, for above 50% of the cells showing neurite outgrowth; ++, for 20–50% with neurite outgrowth; +, for 5–19% having neurite outgrowth; and −, for below 5% of the cells with neurite outgrowth.

In experiment [3] the test system is skin-derived precursors (SKPs). Description: Western blot analysis of neuronal markers in NDD peptide-treated cells. Particulars: Figure 6A; for Expression of GAD: glutamic acid decarboxylase; for Expression of TH: tyrosine hydroxylase. On the procedure:
as §1, §2
Cultured cells were washed 3 times in cold PBS and then scraped into ice-cold PBS. After incubation on ice for 10 min, the cells were lysed with lysis buffer and centrifuged, after which the supernatants were collected. Each sample was separated by SDS-PAGE under reducing conditions and transferred electrophoretically to nitrocellulose filters. Non-specific binding of antibody was blocked by incubation with 5% donkey serum for 1 h. Western blots were probed with anti-MAP2 antibody, anti-NFH antibody, anti-ChAT antibody, anti-GAD antibody, anti-rhodopsin antibody, anti-TH antibody, and anti-elongin C antibody (Santa Cruz, San Diego, CA, USA) followed by horseradish peroxidase-conjugated secondary antibodies. Protein bands were detected by using a chemical luminescence detection system (ECL Plus Western Blotting Reagent Pack, Amersham, Hemel Hempstead, UK). Images were analyzed with LAS-1000 (Fujifilm, Tokyo, Japan), and the density of the bands was determined by using Image Gauge software (Fujifilm).
For orientation: A western blot detects proteins with antibodies after separation by electrophoresis.

The mark [4] stands for this setting: BC-box motif plus five C-terminal amino acids peptides, delivered with TAT PTD, 1 to 5 μM.
Where [5] appears, read: BC-box motif alone (10-residue) peptides, delivered with TAT PTD, 1 to 5 μM.

“YARAAARQARASLQYICRAVICRCTT [SOCS5 BC-box motif plus five amino acids]”: in experiment [1], the “Rate of TH-positive (dopaminergic neuron-like) cells” value (from here on “Rate of TH-positive”) was “high rates of positive cells” and the “Rate of rhodopsin-positive cells” value is reported as “high rates of positive cells”. Further, the “Neurite Outgrowth Activity” value in experiment [2] (setting [4]) is given as “+++ (above 50% of the cells showing neurite outgrowth)”. Besides, the Expression of rhodopsin entry in experiment [3] is recorded as “highly expressed”. Consider “YARAAARQARATLLESSARTI [LRR-1 BC-box motif alone]”, for which the “Neurite Outgrowth Activity” value in experiment [2] (setting [5]) is on record as “- (below 5% of the cells with neurite outgrowth)”.

“YARAAARQARA SLKHLCRKAL [WSB2 BC-box motif alone]”: the “Neurite Outgrowth Activity” value in experiment [2] (setting [5]) is listed as “- (below 5% of the cells with neurite outgrowth)”. Consider “YARAAARQARASLQHLCRFRI [SOCS7 BC-box motif alone]”, for which the “Neurite Outgrowth Activity” value in experiment [2] (setting [5]) is “+ (5–19% having neurite outgrowth)”. Consider “YARAAARQARATLQHLCRKTV [SOCS3 BC-box motif alone]”, for which the “Neurite Outgrowth Activity” value in experiment [2] (setting [5]) is reported as “- (below 5% of the cells with neurite outgrowth)”. Take “YARAAARQARATLQHFCRLAINKCT G [SOCS2 BC-box motif plus five amino acids]”: the “Neurite Outgrowth Activity” value in experiment [2] (setting [4]) is given as “+ (5–19% having neurite outgrowth)”. For the same sequence, in experiment [3], the Expression of rhodopsin entry was “moderate” and the “Expression of GAD” value is given as “expressed highly”.

Take “YARAAARQARATLLESSARTILHNRI [LRR-1 BC-box motif plus five amino acids]”: in experiment [1], the “Rate of GAD-positive (GABAnergic neuron-like) cells” value is “high rates of positive cells” and the “Rate of TH-positive” value is “high rates of positive cells”. Further, the “Neurite Outgrowth Activity” value in experiment [2] (setting [4]) is “++ (20–50% with neurite outgrowth)”. Moreover, in experiment [3], the “Expression of GAD” value is given as “expressed highly”. On to “YARAAARQARASLQYLCRFVIRQYTR [SOCS6 BC-box motif plus five amino acids]”, for which the “Rate of TH-positive” value in experiment [1] is reported as “high rates of positive cells”. Further, the “Neurite Outgrowth Activity” value in experiment [2] (setting [4]) was “++ (20–50% with neurite outgrowth)”. Further, the “Expression of TH” value in experiment [3] is given as “moderate”. As for “YARAAARQARA PLQELCRQRI [SOCS1 BC-box motif alone]”, the “Neurite Outgrowth Activity” value in experiment [2] (setting [5]) is on record as “- (below 5% of the cells with neurite outgrowth)”. As to “YARAAARQARAPLQELCRQRIVAAVG [SOCS1 BC-box motif plus five amino acids]”, in experiment [2] (setting [4]), the “Neurite Outgrowth Activity” value was “++ (20–50% with neurite outgrowth)”. In addition, the “Expression of ChAT” value in experiment [3] (choline acetyltransferase) was “moderate”. For the same sequence, the “Expression of TH” value in experiment [3] is “moderate”. In the case of “YARAAARQARASLQHICRTVI [SOCS4 BC-box motif alone]”, the “Neurite Outgrowth Activity” value in experiment [2] (setting [5]) is on record as “- (below 5% of the cells with neurite outgrowth)”. Same read-out and setting: as for “YARAAARQARA SLQYICRAVI [SOCS5 BC-box motif alone]”, the entry is “+ (5–19% having neurite outgrowth)”. As to “YARAAARQARA TLKERCLQVV [VHL(157–166), pVHL BC-box motif alone, conjugated with PTD]”, the “Neurite Outgrowth Activity” value in experiment [2] (setting [5]) is listed as “- (below 5% of the cells with neurite outgrowth)”; in experiment [2] (Figure 2A, rates of cells having neurites, peptides at 1 to 5 μM, VHL157–168 vs VHL(157–171) p < 0.005), “scarcely did”. As for “YARAAARQARASLQYLCRFVI [SOCS6 BC-box motif alone]”, the “Neurite Outgrowth Activity” value in experiment [2] (setting [5]) was “- (below 5% of the cells with neurite outgrowth)”.

Regarding “YARAAARQARAMPRRAENWDEAEV [VHL(1–13), pVHL fragment conjugated with PTD]”, in experiment [2] (phase-contrast microscopy, Figure 1E, peptides at 1 to 5 μM), the Morphological change entry was “no morphological change”. With “YARAAARQARATLQHFCRLAI [SOCS2 BC-box motif alone]”, the “Neurite Outgrowth Activity” value in experiment [2] (setting [5]) is recorded as “- (below 5% of the cells with neurite outgrowth)”.

Regarding “YARAAARQARASLTHLCRLEIRSSIK [ASB3 BC-box motif plus five amino acids]”, in experiment [1], the “Rate of GAD-positive (GABAnergic neuron-like) cells” value is listed as “high rates of positive cells” and the “Rate of TH-positive” value was “high rates of positive cells”. Regarding “YARAAARQARASLQHICRTVICNCTT [SOCS4 BC-box motif plus five amino acids]”, the “Neurite Outgrowth Activity” value in experiment [2] (setting [4]) is reported as “++ (20–50% with neurite outgrowth)”. Further, in experiment [3], the Expression of rhodopsin result was “moderate” and the “Expression of GAD” value was “expressed highly”.

The values above are taken from paper PMC5855688, “BC-Box Motif-Mediated Neuronal Differentiation of Somatic Stem Cells” (International Journal of Molecular Sciences, 2018).
